# ChEMBL document CHEMBL1201862, “PubChem BioAssay data set” (2004)
#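 Test compounds were applied to cells in 96-well plates for 48 hours at 5 doses. GI50 = concentration required for 50% inhibition of growth.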 Active and inactive are the calls of the source. Rule as the data show it: active = GI50 up to about 1.1 µM and inactive = higher.
# Legend:
# Assay in all cases: inhibition of tumour cell growth, NCI panel, 48 h
# SK-MEL-5 = tested on: SK-MEL-5
# SNB-75 = tested on: SNB-75
# UO-31 = tested on: UO-31
# SF-295 = tested on: SF-295
# MDA-N = tested on: MDA-N
# CCRF-CEM = tested on: CCRF-CEM
# NCI-H226 = tested on: NCI-H226
# HCC 2998 = tested on: HCC 2998
# OVCAR-4 = tested on: OVCAR-4
# 786-0 = tested on: 786-0
# NCI-H23 = tested on: NCI-H23
# LOX IMVI = tested on: LOX IMVI
# UACC-62 = tested on: UACC-62
# SK-OV-3 = tested on: SK-OV-3
# HOP-62 = tested on: HOP-62
# ACHN = tested on: ACHN
# Malme-3M = tested on: Malme-3M
# SN12C = tested on: SN12C
# U-251 = tested on: U-251
SMILES,GI50 (SK-MEL-5),GI50 (SNB-75),GI50 (UO-31),GI50 (SF-295),GI50 (MDA-N),GI50 (CCRF-CEM),GI50 (NCI-H226),GI50 (HCC 2998),GI50 (OVCAR-4),GI50 (786-0),GI50 (NCI-H23),GI50 (LOX IMVI),GI50 (UACC-62),GI50 (SK-OV-3),GI50 (HOP-62),GI50 (ACHN),GI50 (Malme-3M),GI50 (SN12C),GI50 (U-251)
N#Cc1nc(/C=C/c2nc(C#N)c(N)o2)oc1N,> 10 µM (inactive),> 10 µM (inactive),> 10 µM (inactive),> 10 µM (inactive),> 10 µM (inactive),> 10 µM (inactive),> 10 µM (inactive),> 10 µM (inactive),> 10 µM (inactive),> 10 µM (inactive),> 10 µM (inactive),> 10 µM (inactive),> 10 µM (inactive),> 10 µM (inactive),> 10 µM (inactive),> 10 µM (inactive),> 10 µM (inactive),> 10 µM (inactive),–
CCOC(=O)C(NC(=O)CC(C)C)(N1CCN(c2cc3c(cc2F)c(=O)c(C(=O)O)cn3C2CC2)CC1)C(F)(F)F (stereo not given),12.7 µM (inactive),21.4 µM (inactive),17.9 µM (inactive),21.3 µM (inactive),20.3 µM (inactive),3.32 µM (inactive),20.7 µM (inactive),12 µM (inactive),20.8 µM (inactive),29.5 µM (inactive),7.46 µM (inactive),15.8 µM (inactive),15.2 µM (inactive),24 µM (inactive),36.6 µM (inactive),12.5 µM (inactive),17.6 µM (inactive),27.5 µM (inactive),14.7 µM (inactive)
CCOC(=O)C1=C(C)NC(C)=C(C(=O)OCCNC(=O)c2ccc(N=[N+]=[N-])cc2)C1c1ccccc1C(F)(F)F (stereo not given) [AZIDOPINE],7.85 µM (inactive),> 10 µM (inactive),4.79 µM (inactive),8.61 µM (inactive),10.2 µM (inactive),6.55 µM (inactive),15 µM (inactive),13.2 µM (inactive),12.2 µM (inactive),13.3 µM (inactive),11.3 µM (inactive),10.7 µM (inactive),11.2 µM (inactive),13.3 µM (inactive),> 21.5 µM (inactive),7.64 µM (inactive),14 µM (inactive),15.1 µM (inactive),10.9 µM (inactive)
O=C1/C(=C/c2ccc(Cl)cc2)N=C(c2ccccc2)N1c1ccc(S(=O)(=O)Nc2nccs2)cc1,23.1 µM (inactive),39.5 µM (inactive),23.6 µM (inactive),56.5 µM (inactive),26 µM (inactive),27 µM (inactive),52.1 µM (inactive),18.9 µM (inactive),50.8 µM (inactive),46 µM (inactive),52.2 µM (inactive),31.7 µM (inactive),18.7 µM (inactive),> 100 µM (inactive),62.2 µM (inactive),62.5 µM (inactive),30.9 µM (inactive),64 µM (inactive),36.2 µM (inactive)
O=[N+]([O-])c1ccc(NN/N=N/c2ccc(-c3nc4ccccc4[nH]3)cc2)c([N+](=O)[O-])c1,10.4 µM (inactive),96.6 µM (inactive),84.1 µM (inactive),4.2 µM (inactive),39.9 µM (inactive),9.04 µM (inactive),43.2 µM (inactive),31 µM (inactive),28.6 µM (inactive),36.3 µM (inactive),29 µM (inactive),7.48 µM (inactive),4.06 µM (inactive),94.6 µM (inactive),42.6 µM (inactive),19.4 µM (inactive),75 µM (inactive),64.6 µM (inactive),53.7 µM (inactive)
C=C1CCC2C(C)(CO)C(O)CCC2(C)C1C/C=C1\C(=O)OCC1O (stereo not given),14.1 µM (inactive),15.4 µM (inactive),36.3 µM (inactive),19.9 µM (inactive),9.31 µM (inactive),3.87 µM (inactive),39.8 µM (inactive),22.5 µM (inactive),11.1 µM (inactive),5.4 µM (inactive),21.6 µM (inactive),12.6 µM (inactive),18.8 µM (inactive),24 µM (inactive),28.2 µM (inactive),29 µM (inactive),15.6 µM (inactive),15.2 µM (inactive),11.1 µM (inactive)
CC1(C)C(=O)N=C(N)N1C(=O)OCc1ccccc1,> 100 µM (inactive),> 100 µM (inactive),67.6 µM (inactive),> 100 µM (inactive),> 100 µM (inactive),> 100 µM (inactive),> 100 µM (inactive),> 100 µM (inactive),> 100 µM (inactive),> 100 µM (inactive),> 100 µM (inactive),> 100 µM (inactive),> 100 µM (inactive),> 100 µM (inactive),> 100 µM (inactive),> 100 µM (inactive),> 100 µM (inactive),> 100 µM (inactive),> 100 µM (inactive)
C=CCC(C(=O)O)c1ccccc1 (stereo not given),> 100 µM (inactive),> 100 µM (inactive),> 100 µM (inactive),> 100 µM (inactive),> 100 µM (inactive),> 100 µM (inactive),> 100 µM (inactive),> 100 µM (inactive),> 100 µM (inactive),> 100 µM (inactive),> 100 µM (inactive),> 100 µM (inactive),> 100 µM (inactive),> 100 µM (inactive),> 100 µM (inactive),> 100 µM (inactive),> 100 µM (inactive),> 100 µM (inactive),> 100 µM (inactive)
CC#CC(O)(C(=O)OC1CCCN(C)C1)C1=CC=CCC1 (stereo not given),> 100 µM (inactive),> 100 µM (inactive),> 100 µM (inactive),> 100 µM (inactive),> 100 µM (inactive),> 100 µM (inactive),> 100 µM (inactive),> 100 µM (inactive),> 100 µM (inactive),> 100 µM (inactive),> 100 µM (inactive),> 100 µM (inactive),> 100 µM (inactive),> 100 µM (inactive),> 100 µM (inactive),> 100 µM (inactive),> 100 µM (inactive),> 100 µM (inactive),> 100 µM (inactive)
CC1(C)S[C@@H]2[C@H](NC(=O)/C=C/c3ccccc3)C(=O)N2[C@H]1C(=O)O,> 100 µM (inactive),47.9 µM (inactive),> 100 µM (inactive),> 100 µM (inactive),> 100 µM (inactive),> 100 µM (inactive),> 100 µM (inactive),> 100 µM (inactive),> 100 µM (inactive),> 100 µM (inactive),> 100 µM (inactive),> 100 µM (inactive),> 100 µM (inactive),> 100 µM (inactive),> 100 µM (inactive),> 100 µM (inactive),> 100 µM (inactive),> 100 µM (inactive),> 100 µM (inactive)
O=C1CC(c2ccc([N+](=O)[O-])cc2)C2(C(=O)NC(=S)NC2=O)C(c2ccc([N+](=O)[O-])cc2)C1 (stereo not given),31.3 µM (inactive),> 100 µM (inactive),25.4 µM (inactive),25.5 µM (inactive),31.4 µM (inactive),27.7 µM (inactive),15.7 µM (inactive),24.4 µM (inactive),45.7 µM (inactive),27.7 µM (inactive),22.1 µM (inactive),19 µM (inactive),14.8 µM (inactive),35.9 µM (inactive),23.8 µM (inactive),20.1 µM (inactive),12.2 µM (inactive),21.5 µM (inactive),18.7 µM (inactive)
O=C(CC(=O)Nc1ccccc1)NNC(Sc1ccccc1)c1cc(/N=N/c2ccc(Br)cc2)ccc1O (stereo not given),1.06 µM (active),3.15 µM (inactive),2.29 µM (inactive),3.85 µM (inactive),2.41 µM (inactive),0.417 µM (active),0.444 µM (active),> 10 µM (inactive),1.56 µM (inactive),0.802 µM (active),2.83 µM (inactive),2.49 µM (inactive),2.09 µM (inactive),4.21 µM (inactive),3.08 µM (inactive),2.47 µM (inactive),4.26 µM (inactive),1.89 µM (inactive),6.31 µM (inactive)
O=C(Cc1ccccc1)N/N=C/c1ccccc1O,12 µM (inactive),12.5 µM (inactive),6.52 µM (inactive),10.3 µM (inactive),21.8 µM (inactive),4.94 µM (inactive),14.1 µM (inactive),11.2 µM (inactive),15.7 µM (inactive),6.14 µM (inactive),17.8 µM (inactive),9.42 µM (inactive),8.95 µM (inactive),15.9 µM (inactive),–,5.15 µM (inactive),12.6 µM (inactive),17.2 µM (inactive),19.5 µM (inactive)
O=[N+]([O-])c1cc(Cl)ccc1S(=O)(=O)N1CCCc2cc(Cl)ccc21,30.8 µM (inactive),18.7 µM (inactive),46.2 µM (inactive),45.7 µM (inactive),22.5 µM (inactive),6.17 µM (inactive),82.4 µM (inactive),> 100 µM (inactive),88.9 µM (inactive),> 100 µM (inactive),–,34.8 µM (inactive),19.7 µM (inactive),59.6 µM (inactive),> 100 µM (inactive),> 100 µM (inactive),51.5 µM (inactive),> 100 µM (inactive),–
O=C(NC(Nc1ccc(F)c(Cl)c1)(C(F)(F)F)C(F)(F)F)OCc1ccccc1,44.1 µM (inactive),36.9 µM (inactive),19.8 µM (inactive),28.2 µM (inactive),19.7 µM (inactive),15.8 µM (inactive),> 100 µM (inactive),22.1 µM (inactive),–,18.3 µM (inactive),71.4 µM (inactive),64.7 µM (inactive),17.7 µM (inactive),26 µM (inactive),30.3 µM (inactive),17.7 µM (inactive),43.5 µM (inactive),31.2 µM (inactive),29.2 µM (inactive)
